Read-outs that look alike come from different tables or passages of the source.
Columns and labels:
B16-F10 cells = test: Inhibition of cell surface sialylation, lectin staining and flow cytometry, B16-F10 cells; format: cell-based, Mouse; conditions: Mus musculus, 72 h, three days
Procedure: (§1) Mouse B16-F10 melanoma cells (ATCC CRL-6475) were cultured in Minimum Essential Medium (MEM) (Gibco, Invitrogen, Carlsbad, Calif.) containing 5% fetal bovine serum (FBS) (Greiner Bio-one, Frickenhausen, Germany), 1% MEM non-essential amino acids (Gibco), 0.15% sodium bicarbonate (Gibco), 1 mM sodium pyruvate (Gibco), 1.5% MEM vitamins (Gibco), 1% antibiotic-antimycotic solution (50 U/ml penicillin, 50 μg/ml streptomycin and 125 ng/ml amphotericin B) (Gibco). The murine 9464D neuroblastoma cell line was cultured in Dulbecco's Modified Eagle's Medium (DMEM, Glutamax, Gibco) with 10% FBS, 1% non-essential amino acids, 50 μM 2-mercaptoethanol (Sigma-Aldrich) and 1% antibiotic-antimycotic solution (Kroesen et al., 2014, DOI: 10.1002/ijc.28463, Stauffer et al., 2012, DOI: 10.3109/07357907.2012.664670). The murine EL4 T lymphocyte cell line (ATCC TIB-39) was cultured in Iscove's Modified Dulbecco's Medium (IMDM, Gibco) supplemented with 5% FBS and 1% antibiotic-antimycotic solution. Human HEK293 (ATCC CRL-1573) kidney cells and human HeLa (ATCC CCL-2) cervical cancer cells were cultured in DMEM containing 10% FBS, 2 mM glutamine (Lonza, Walkersville, Md.) and 1% antibiotic-antimycotic solution. Human monocytic THP-1 cells (TIB-202, ATCC) were cultured in RRMI-1640 medium (Gibco) supplemented with 10% FBS, 2 mM glutamine and 1% antibiotic-antimycotic solution. All cell lines were cultured in a humidified 5% CO2 incubator at 37° C.
(§2) To assess the effect of the synthesized compounds on cell surface sialylation, different murine and human cell lines were cultured for three days in the presence of 0-204.8 μM amide and carbamate fluorine sialic acids. Cells treated with an equal final percentage of DMSO were used as control and all cells were subjected to lectin staining and flow cytometry as described below. To investigate the longevity of the effect of the fluorine sialic acids on cell surface sialylation, B16-F10 cells treated with 25.6 μM or 51.2 μM were thoroughly washed with medium to remove fluorine sialic acids from the culture and reseeded. During a period of six days, cells were harvested every day and sialylation was assessed by flow cytometry.
(§3) For the lectin staining, all cells were harvested and washed with 1× carbo-free blocking solution (Vector Laboratories, Inc., Burlingame, Calif., USA) and stained for 45 minutes at 4° C. in 1× carbo-free blocking solution containing 1 mM CaCl2), 1 mM MgCl2 and biotinylated MALII (5 μg/ml), SNA-1 (1 μg/ml) or PNA (5 μg/ml) all obtained from Vector Laboratories Inc. MALII recognizes α2,3-linked sialic acids, SNA-1 recognizes α2,6-linked sialic acids and PNA binds to terminal 3-galactose. In addition, B16-F10 cells were stained with 2 μg/ml biotinylated AAL (α-linked Fucose), LCA (α-linked Mannose), PHA-L (complex glycans), GSL-I (α-linked Galactose and N-Acetylgalactosamine), WGA (chitobiose), SJA (β-linked Galactose and N-Acetylgalactosamine) and PSA (Glucose and Mannose) purchased from Vector Laboratories Inc. Next, the cells were washed thrice in PBA (1×PBS, 1% BSA, and 0.02% sodium azide) and stained for 10 minutes at 4° C. with 2 μg/ml streptavidin-phycoerythrin (PE) (BD Pharmingen, Franklin Lakes, N.J., USA). The cells were washed thrice again with PBA and fluorescence was assessed using a CyAn ADP flow cytometer (BD Biosciences, San Jose, Calif.) followed by analysis with FlowJo software (Tree Star Inc., Ashland, Oreg.). Untreated cells stained with streptavidin-PE only served as background fluorescence control. The percentages lectin binding was calculated by normalizing the mean fluorescence intensity values from the treated cells with the DMSO controls.
(§4) IC50 values and statistics were calculated using Prism 5.03 (GraphPad Software, Inc., La Jolla, Calif.). Statistical significance between the different groups was calculated using one-way ANOVA followed by Bonferroni post-hoc testing and P-values<0.05 were considered significant (p<0.05 *, p<0.01 **, p<0.001 ***). […]

THP-1 cells = test: Inhibition of cell surface sialylation, lectin staining and flow cytometry, THP-1 cells; format: cell-based, Human; conditions: Homo sapiens, 72 h, three days
Procedure: as §1, §2, §3, §4

HEK293 cells = test: Inhibition of cell surface sialylation, lectin staining and flow cytometry, HEK293 cells; format: cell-based, Human; conditions: Homo sapiens, 72 h, three days
Procedure: as §1, §2, §3, §4

HeLa cells = test: Inhibition of cell surface sialylation, lectin staining and flow cytometry, HeLa cells; format: cell-based, human; conditions: Homo sapiens, 72 h, three days
Procedure: as §1, §2, §3, §4

9464D cells = test: Inhibition of cell surface sialylation, lectin staining and flow cytometry, 9464D cells; format: cell-based, murine; conditions: Mus musculus, 72 h, three days
Procedure: as §1, §2, §3, §4

EL4 cells = test: Inhibition of cell surface sialylation, lectin staining and flow cytometry, EL4 cells; format: cell-based, murine; conditions: Mus musculus, 72 h, three days
Procedure: as §1, §2, §3, §4

[1] = MALII lectin binding, read-out: α2,3-Sia IC50
[2] = SNA-I lectin binding, read-out: α2,6-Sia IC50

Row | IC50 (B16-F10 cells; [1]) | IC50 (B16-F10 cells; [2]) | IC50 (THP-1 cells; [1]) | IC50 (THP-1 cells; [2]) | IC50 (HeLa cells; [1]) | IC50 (HeLa cells; [2]) | IC50 (9464D cells; [1]) | IC50 (9464D cells; [2]) | IC50 (EL4 cells; [1]) | IC50 (EL4 cells; [2]) | SMILES | IC50 (HEK293 cells; [1]) | IC50 (HEK293 cells; [2])
1 | 18 ± 2.12 µM | – | – | – | – | – | – | – | – | – | COC(=O)C1(OC(C)=O)OC([C@H](OC(C)=O)[C@@H](COC(C)=O)OC(C)=O)[C@H](NC(=O)CCl)C(OC(C)=O)C1F (stereo partly drawn) [SiaFAcC, Methyl 5-(chloroacetamido)-2,4,7,8,9-penta-O-acetyl-3,5-dideoxy-3-fluoro-D-glycero-β-galacto-non-2-ulopyranosonate, reference compound] | – | –
2 | 7.45 ± 0.92 µM | 7.91 ± 1.95 µM | – | – | – | – | – | – | – | – | CCCCOC(=O)N[C@@H]1C(OC(C)=O)C(F)C(OC(C)=O)(C(=O)OC)OC1[C@H](OC(C)=O)[C@@H](COC(C)=O)OC(C)=O (stereo partly drawn) [SiaFnBu, Methyl 5-(butylcarbamado)-2,4,7,8,9-penta-O-acetyl-3,5-dideoxy-3-fluoro-D-glycero-β-galacto-non-2-ulopyranosonate] | – | –
3 | 0.72 ± 0.2 µM | 2.59 ± 0.07 µM | 0.42 ± 0.9 µM | 0.44 µM | 1.65 ± 2.27 µM | 1.37 ± 0.81 µM | 10.7 ± 2.85 µM | 40.2 ± 6.56 µM | 51 ± 8.62 µM | 51.6 ± 2.62 µM | C#CCOC(=O)N[C@@H]1C(OC(C)=O)C(F)C(OC(C)=O)(C(=O)OC)OC1[C@H](OC(C)=O)[C@@H](COC(C)=O)OC(C)=O (stereo partly drawn) [SiaFPoc, Methyl 5-(propargylcarbamado)-2,4,7,8,9-penta-O-acetyl-3,5-dideoxy-3-fluoro-D-glycero-β-galacto-non-2-ulopyranosonate] | 1.19 ± 1.47 µM | 5.42 ± 1.4 µM
4 | 3.33 ± 0.12 µM | 15.1 ± 3.7 µM | 0.5 ± 1.34 µM | 0.62 ± 1.77 µM | 5.15 ± 2.4 µM | 4.32 ± 1.82 µM | 24.4 ± 2.95 µM | 36.1 ± 6.4 µM | 51.8 ± 18.7 µM | 51.1 ± 8.97 µM | COC(=O)C1(OC(C)=O)OC([C@H](OC(C)=O)[C@@H](COC(C)=O)OC(C)=O)[C@H](NC(=O)OCC(C)C)C(OC(C)=O)C1F (stereo partly drawn) [SiaFiBu, Methyl 5-(isobutylcarbamado)-2,4,7,8,9-penta-O-acetyl-3,5-dideoxy-3-fluoro-D-glycero-β-galacto-non-2-ulopyranosonate] | 11.4 ± 4.73 µM | 9.61 ± 4.83 µM
5 | 1.39 ± 0.21 µM | 2.87 ± 0.8 µM | 0.41 ± 0.73 µM | 0.38 µM | 1.77 ± 1.78 µM | 2.04 ± 1.4 µM | 6.91 ± 3.56 µM | 9.64 ± 3.93 µM | 39.9 ± 4.95 µM | 50.9 ± 6.44 µM | C=CCOC(=O)N[C@@H]1C(OC(C)=O)C(F)C(OC(C)=O)(C(=O)OC)OC1[C@H](OC(C)=O)[C@@H](COC(C)=O)OC(C)=O (stereo partly drawn) [SiaFAII, 5-(alloxycarbamado)-2,4,7,8,9-penta-O-acetyl-3,5-dideoxy-3-fluoro-D-glycero-β-galacto-non-2-ulopyranosonate] | 1.83 ± 1.19 µM | 1.68 ± 3.2 µM
6 | 14.5 ± 3.51 µM | – | – | – | – | – | – | – | – | – | COC(=O)C1(OC(C)=O)OC([C@H](OC(C)=O)[C@@H](COC(C)=O)OC(C)=O)[C@H](NC(=O)OCc2ccccc2)C(OC(C)=O)C1F (stereo partly drawn) [SiaFCbz, Methyl 5-(benzylcarbamado)-2,4,7,8,9-penta-O-acetyl-3,5-dideoxy-3-fluoro-D-glycero-β-galacto-non-2-ulopyranosonate, reference compound] | – | –
7 | 25.5 ± 2.53 µM | 32.4 ± 1.38 µM | – | – | – | – | – | – | – | – | COCCOC(=O)N[C@@H]1C(OC(C)=O)C(F)C(OC(C)=O)(C(=O)OC)OC1[C@H](OC(C)=O)[C@@H](COC(C)=O)OC(C)=O (stereo partly drawn) [SiaFMox, Methyl 5-(2-methoxy-ethylcarbamado)-2,4,7,8,9-penta-O-acetyl-3,5-dideoxy-3-fluoro-D-glycero-R-galacto-non-2-ulopyranosonate] | – | –
8 | 19.9 ± 2.08 µM | 32.8 ± 3.55 µM | 10.9 ± 1.98 µM | 13.2 ± 3.02 µM | 80.6 ± 3.26 µM | 42.2 ± 8.42 µM | > 102 µM | > 102 µM | > 102 µM | > 102 µM | COC(=O)C1(OC(C)=O)OC([C@H](OC(C)=O)[C@@H](COC(C)=O)OC(C)=O)[C@H](NC(=O)CN=[N+]=[N-])C(OC(C)=O)C1F (stereo partly drawn) [SiaFAz, Methyl 5-(azidoacetamido)-2,4,7,8,9-penta-O-acetyl-3,5-dideoxy-3-fluoro-D-glycero-β-galacto-non-2-ulopyranosonate, reference compound] | 45.6 ± 5.14 µM | 47.2 ± 2.89 µM
9 | 14.3 ± 0.77 µM | 33.3 ± 2.63 µM | 3.3 ± 1.26 µM | 7.19 ± 3.6 µM | 25.5 ± 2.61 µM | 33.4 ± 4.38 µM | 46.5 ± 4.41 µM | > 102 µM | > 102 µM | > 102 µM | COC(=O)C1(OC(C)=O)OC([C@H](OC(C)=O)[C@@H](COC(C)=O)OC(C)=O)[C@H](NC(=O)C(F)(F)F)C(OC(C)=O)C1F (stereo partly drawn) [SiaFTFA, Methyl 5-(trifluoroacetamido)-2,4,7,8,9-penta-O-acetyl-3,5-dideoxy-3-fluoro-D-glycero-β-galacto-non-2-ulopyranosonate, reference compound] | 42.8 ± 2.38 µM | 41.4 ± 10.4 µM
10 | 4.89 ± 0.25 µM | 7.54 ± 1.34 µM | 1.98 ± 0.91 µM | 2.65 ± 1.6 µM | 6.33 ± 3.26 µM | 5.23 ± 1.88 µM | 18.3 ± 2.67 µM | 29.6 ± 4.67 µM | 59.2 ± 4.17 µM | 52.7 ± 5.45 µM | COC(=O)N[C@@H]1C(OC(C)=O)C(F)C(OC(C)=O)(C(=O)OC)OC1[C@H](OC(C)=O)[C@@H](COC(C)=O)OC(C)=O (stereo partly drawn) [SiaFMe, Methyl 5-(methylcarbamado)-2,4,7,8,9-penta-O-acetyl-3,5-dideoxy-3-fluoro-D-glycero-β-galacto-non-2-ulopyranosonate] | 3.31 ± 1.24 µM | 4.77 ± 2.8 µM

Row | SMILES | IC50 (B16-F10 cells; [1]) | IC50 (B16-F10 cells; [2]) | IC50 (THP-1 cells; [1]) | IC50 (THP-1 cells; [2]) | IC50 (HeLa cells; [1]) | IC50 (HeLa cells; [2]) | IC50 (9464D cells; [1]) | IC50 (9464D cells; [2]) | IC50 (EL4 cells; [1]) | IC50 (EL4 cells; [2]) | IC50 (HEK293 cells; [1]) | IC50 (HEK293 cells; [2])
11 | COC(=O)C1(OC(C)=O)OC([C@H](OC(C)=O)[C@@H](COC(C)=O)OC(C)=O)[C@H](NC(=O)COC(C)=O)C(OC(C)=O)C1F (stereo partly drawn) [SiaFGc, Methyl 5-(acetoxyamido)-2,4,7,8,9-penta-O-acetyl-3,5-dideoxy-3-fluoro-D-glycero-β-galacto-non-2-ulopyranosonate] | 4.98 ± 0.33 µM | 11.8 ± 2.27 µM | 4.24 ± 2 µM | 5.94 ± 2.18 µM | 16.6 ± 3.91 µM | 12.5 ± 2.52 µM | > 102 µM | > 102 µM | > 102 µM | > 102 µM | 53.6 ± 5.25 µM | 54.1 ± 15.3 µM
12 | COC(=O)C1(OC(C)=O)OC([C@H](OC(C)=O)[C@@H](COC(C)=O)OC(C)=O)[C@H](NC(=O)OC(C)(C)C)C(OC(C)=O)C1F (stereo partly drawn) [SiaFBoc, Methyl 5-(tert-butoxycarbamado)-2,4,7,8,9-penta-O-acetyl-3,5-dideoxy-3-fluoro-D-glycero-β-galacto-non-2-ulopyranosonate] | 3.48 ± 0.56 µM | 8.21 ± 0.67 µM | 1.28 ± 1.36 µM | 1.72 ± 2.3 µM | 12.8 ± 1.61 µM | 20.6 ± 1.95 µM | 36.5 ± 3.81 µM | > 102 µM | 54.6 ± 3.22 µM | 50.3 ± 3.99 µM | 10.4 ± 4.76 µM | 28 ± 2.57 µM

Source: US11639364B2, “Potent sialyltransferase inhibitors” (STICHTING RADBOUD UNIVERSITEIT, priority 2018, dated 2023)
